Entries after “also recorded” stand apart in the source; their conditions may differ. Where no end group is shown, it is not given here. The star is where a group is joined. For = O=C*
Tested on: OVA-sensitized/challenged mice
Assay: OVA allergen-induced airway inflammation mouse model, 28-day protocol, HK-X i.n. before each challenge
Assay type: in vivo
From the text: The above-described murine model reproduces key features of human asthma. Late-phase allergen-specific pulmonary disease was induced in normal BALB/c mice using ovalbumin (OVA) as allergen. One protocol includes immunization of mice with i.p. OVA on […] and 14, and intranasal (i.n.) administration of OVA on days 14, 25, 26, and 27.
In a mouse model of allergen-induced airway inflammation, the role of mast cell in airway eosinophil infiltration, mucus release, and hyper-responsiveness to methacholine was examined.
Materials were used as described above. Mice received an i.p. injection of 0.2 ml (100 ug) of OVA complexed with aluminum potassium sulfate (alum) on day 0 and 14. On days 14, 25, 26, and 27, mice were anesthetized with 0.2 ml i.p. of ketamine (0.44 mg/ml)/xylazine (6.3 mg/ml) in normal saline before receiving an intranasal (i.n.) dose of 100 ug OVA in 0.05 ml normal saline on days 25, 26, and 27. Lung tissue was obtained 24 hours after the last i.n. challenge on day 28. The control group received normal saline with alum i.p. on days 0 and 14 and normal saline without alum i.n. on days 14, 25, 26, and 27. To assess the effect of HK-X inhibition on OVA induced asthma, HK-X (10 ug/ml) was given i.n. 30 minutes before each i.n challenge on days 25, 26, and 27.
After tying off the left lung at the mainstem bronchus, the right lung was […] three times with 0.4 ml of normal saline, Bronchoalveolar lavage (BAL) fluid cells from a 0.05 ml aliquot of the pooled sample were counted using a hemocytometer and the remaining fluid centrifuged at 4° C. for 10 minutes at 200 g. After resuspension of the cell pellet in normal saline containing 10% BSA, BAL cell smears were made on glass slides. To stain eosinophils, dried slides were stained with Discombe's diluting fluid (0.05% aqueous eosin and 5% (v/v) acetone in distilled water) for 5-8 minutes, rinsed with water for 0.5 minutes and counterstained with 0.07 methylene blue for 2 minutes.
Following BAL, the trachea and left lung (upper and lower lobes) were obtained and fixed in 10% buffered formalin solution at 20° C. for1S hours. After the tissues were processed and embeded in paraffin, the tissues were cut into 5 μm sections and stained with Discombe's solution and counterstained with methylene blue as described above or stained with Hematoxylin and eosin. The eosinophil number per unit airway area (2200 μm^2) was determined by morphometry as previously described. Airway mucus was identified by a variety of staining methods, i.e., methylene blue, Hematoxylin and eosin, mucicarmine, toluidine blue, alcian blue, and alcian blue/periodic acid Schiff (PAS) reaction. Mucin was stained with mucicarmine solution; metanil yellow counterstain was employed. Mucin and sialic acid-rich non-sulfated mucosubstances were stained metachromatically with toluidine blue, pH 4.5. Acidic mucin and sulfated mucosubstances were stained with alcian blue, pH 2.5; nuclear fast red counterstain was used. Neutral and acidic mucosubstances were identified by alcian blue, pH 2.5 and PAS reaction. The degree of mucus plugging of the airways (0.5˜0.8 mm in diameter) also was assessed by morphometry. The percent occlusion of airway diameter by mucus was classified on a semiquantitative scale from 0 to +++++. The histologic and morphometric analyses protocol design were performed by individuals blinded to the protocol design.
Mucus glycoproteins in BAL fluid were assayed by slot blotting and PAS staining as described. Nitrocellulose membranes (0.2 um pore size; Schleicher & Schuell, Keene, N.H.) were wetted in distilled water and then in normal saline before placement in a Minifold II 72-well slot blot apparatus (Schleicher & Schuell). The BAL fluid samples (0.05 ml) and aliquots (0.05-0.75 ml) of a stock solution (2 ug/ml) of human respiratory mucin glycoprotein were blotted onto the nitrocellulose membranes by water suction vacuum, and mucus glycoproteins were visualized by PAS reaction. […]

f-Met-Leu-Phe-Phe (For-MLFF) [Example 9]
cellular infiltration during asthmatic attack (10 μg HK-X intranasally 30 minutes prior to challenge, FIG. 9): reduces the cellular infiltration
eosinophil influx into lung tissue and BAL fluid (HK-X 10 ug/ml i.n. 30 minutes before each i.n. challenge, day 28): markedly reduced eosinophil influx into the lung tissue and BAL fluid
airway mucus release / secretion (HK-X i.n. 30 minutes before each OVA challenge days 25, 26, 27, histopathology, listed as HK-X): prevented airway mucus release; also recorded: blocked the airway mucus release; also recorded: prevents the airway mucus secretion; also recorded: reduces the mucus secretion in airways
number of eosinophils in the BAL fluid (OVA-sensitized/challenged mice treated with HK-X, in ×10^5 cells): 0.57+0.11 ×10^5
mucus cell induction by OVA immunization and challenge (alcian blue histochemistry, FIG. 10): prevents the mucus cell induction by OVA immunization and challenge
reduction of eosinophil influx into the lung interstitium (morphometric analysis, p<0.006 compared to OVA without HK-X, FIG. 11): 90%

Source: patent US20030013658A1, “Small peptides and methods for treatment of asthma and inflammation” (Hisatek, LLC, priority 1997, published 2003)
